Measurements: patent publication US6627659B1, “Methods of decreasing the effects of oxidative stress using N-acetylcysteine” (Zambon Group S.p.A., priority 1999, dated 2003)

What was measured:
[1] = system: NADPH oxidase activity in monocytes; experiment: AOPP-HSA-induced NADPH oxidase activity in monocytes, lucigenin chemiluminescence; type: cell-based; settings: AOPP-HSA 2 mg/ml, counts/min over 40 minutes, FIG. 2B
Procedure: (§1) Human serum albumin (HSA) was exposed to HOCl at a molar HSA/HOCl molar ratio of 1/60. The AOPP-HSA preparation was incubated 30 minutes at room temperature and then dialysed overnight against PBS. Isolation of monocytes was performed by an indirect magnetic labelling system which allows the magnetic depletion of non monocytes i.e., T cells, B cells, NK cells, dendritic cells and basophils from a mononuclear cell suspension (obtained by blood sedimentation on a Ficoll gradient) using a cocktail of CD3, CD7, CD19, CD45RA, CD56 and anti-IgE antibodies. Purified monocytes were resuspended at a concentration of 2.5×10^6/ml in phenol-red free Hank's balanced salt solution (HBSS). The capacity of AOPP-HSA to activate monocyte or neutrophil oxygenation activities was measured by chemiluminescence using dimethylbiacridinium (lucigenin) for NADH oxidase activity or luminol for myeloperoxidase activity as chemoluminogenic substrates. One hundred microliters of monocyte suspension (2×10^5/ml) was automatically injected into the luminometer tubes containing 100 μl of HBSS (basal activity), or the tested preparations including: native HSA or AOPP-HSA at 2 mg/ml. Chemiluminescence production was measured in duplicate and luminescence intensity was expressed in counts/min integrated over a 40 minutes period.

[2] = system: NADPH oxidase activity in neutrophils; experiment: AOPP-HSA-induced NADPH oxidase activity in neutrophils, lucigenin chemiluminescence; type: cell-based; settings: neutrophils preincubated with various concentrations of NAC, AOPP-HSA 2 mg/ml, FIG. 2A
Procedure: (§2) Human serum albumin (HSA) was exposed to HOCl at a molar HSA/HOCl molar ratio of 1/60. The AOPP-HSA preparation was incubated 30 minutes at room temperature and then dialysed overnight against PBS. Neutrophils from the Ficoll gradient pellet were separated from erythrocytes by sedimentation in dextran. Residual erythrocytes were lysed by treating the cell pellet with lysis buffer containing ammonium chloride. Purified neutrophils were resuspended at a concentration of 5×10^6/ml in phenol-red free HBSS at pH 7.4 and preincubated with medium alone or various concentrations of NAC. The capacity of AOPP-HSA to activate monocyte or neutrophil oxygenation activities was measured by chemiluminescence using dimethylbiacridinium (lucigenin) for NADH oxidase activity or luminol for myeloperoxidase activity as chemoluminogenic substrates. One hundred microliters of monocyte suspension (2×10^5/ml) was automatically injected into the luminometer tubes containing 100 μl of HBSS (basal activity), or the tested preparations including: native HSA or AOPP-HSA at 2 mg/ml. Chemiluminescence production was measured in duplicate and luminescence intensity was expressed in counts/min integrated over a 40 minutes period.

[3] = system: myeloperoxidase activity in monocytes; experiment: AOPP-HSA-induced myeloperoxidase activity in monocytes, luminol chemiluminescence; type: cell-based; settings: AOPP-HSA 2 mg/ml, counts/min over 40 minutes, FIG. 1B
Procedure: as §1

[4] = system: myeloperoxidase activity in neutrophils; experiment: AOPP-HSA-induced myeloperoxidase activity in neutrophils, luminol chemiluminescence; type: cell-based; settings: neutrophils preincubated with various concentrations of NAC, AOPP-HSA 2 mg/ml, FIG. 1A
Procedure: as §2

[5] = system: patients undergoing dialysis; settings: oral administration; Atherosclerosis 120 (1996) 241-244; cited from earlier work

## CC(=O)N[C@@H](CS)C(=O)O [NAC, N-acetylcysteine]
[1]
  inhibition of NADPH oxidase activity triggered by AOPP-HSA: dose-dependent inhibition
[2]
  inhibition of NADPH oxidase activity triggered by AOPP-HSA: dose-dependent inhibition
[3]
  inhibition of myeloperoxidase activity triggered by AOPP-HSA: dose-dependent inhibition
[4]
  inhibition of myeloperoxidase activity triggered by AOPP-HSA: dose-dependent inhibition
[5]
  efficacy in the treatment of patients undergoing dialysis: without efficacy
